Assay results from ChEMBL document CHEMBL1154068, “Synthesis and evaluation of A-seco type triterpenoids for anti-HIV-1protease activity” (Eur J Med Chem, 2009).

How the values were obtained:
Protease = Protease (Human immunodeficiency virus 1, UniProt Q9YQ12); assay: Inhibition of HIV1 protease
Renin = target: T1, Renin (Homo sapiens, UniProt P00797); assay: Inhibition of renin by fluorimetric assay
T1 sequence (P00797 whole entry): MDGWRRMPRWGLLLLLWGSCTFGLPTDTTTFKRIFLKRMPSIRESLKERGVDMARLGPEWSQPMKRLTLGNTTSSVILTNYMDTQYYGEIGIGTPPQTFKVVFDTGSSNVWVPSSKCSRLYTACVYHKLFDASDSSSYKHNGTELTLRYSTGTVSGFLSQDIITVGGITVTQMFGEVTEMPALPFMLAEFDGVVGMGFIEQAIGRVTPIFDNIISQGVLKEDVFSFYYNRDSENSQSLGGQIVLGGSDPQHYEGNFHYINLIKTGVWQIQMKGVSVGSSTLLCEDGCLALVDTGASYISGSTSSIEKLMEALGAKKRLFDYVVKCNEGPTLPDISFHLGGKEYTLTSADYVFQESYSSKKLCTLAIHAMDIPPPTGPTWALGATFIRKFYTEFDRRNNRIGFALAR

[1] = Inhibition of trypsin by fluorimetric assay
[2] = Inhibition of HCV NS3/4A protease by fluorimetric assay; design: species or system Hepacivirus hominis

Protease, sequence (Q9YQ12 whole entry): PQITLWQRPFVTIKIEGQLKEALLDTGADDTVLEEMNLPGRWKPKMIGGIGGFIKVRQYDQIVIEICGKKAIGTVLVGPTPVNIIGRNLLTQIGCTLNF

Structure (SMILES)	IC50 (Protease) [µM]	IC50 (Renin) [µM]	IC50 [1] [µM]	IC50 [2] [µM]
C[C@@H]1[C@H]2[C@H]3CC[C@@H]4[C@@]5(C)C=C(O)C(=O)C(C)(C)[C@@H]5CC[C@@]4(C)[C@]3(C)CC[C@@]2(C(=O)O)CC[C@H]1C	25.4	–	–	–
CC1(C)C(=O)CC[C@]2(C)[C@H]3C(=O)C=C4[C@H]5C[C@@](C)(C(=O)O)CC[C@]5(C)CC[C@@]4(C)[C@]3(C)CC[C@@H]12	23.6	–	–	–
CC1(C)CC[C@]2(C(=O)O)CC[C@]3(C)C(=CC[C@@H]4[C@@]5(C)CCC(=O)C(C)(C)[C@@H]5CC[C@]43C)[C@H]2C1	27.4	–	–	–
CC1(C)CC[C@]2(CO)CC[C@]3(C)C(=CC[C@@H]4[C@@](C)(CC(=O)O)[C@H](C(C)(C)C(=O)O)CC[C@]43C)[C@H]2C1	30.4	–	–	–
CC(C)[C@@H](NC(=O)[C@]12CCC(C)(C)C[C@@H]1C1=CC[C@@H]3[C@@]4(C)CC[C@H](O)C(C)(C)[C@@H]4CC[C@@]3(C)[C@]1(C)CC2)C(=O)O	47.3	–	–	–
C=C(C)[C@@H]1CC[C@]2(C)CC[C@]3(C)[C@@H](CC[C@@H]4[C@@]5(C)CCC(=O)C(C)(C)[C@@H]5CC[C@]43C)[C@H]12	> 236	–	–	–
CC(C)[C@@H](NC(=O)[C@]12CCC(C)(C)C[C@@H]1C1=CC[C@@H]3[C@@](C)(CC(=O)O)[C@H](C(C)(C)C(=O)O)CC[C@@]3(C)[C@]1(C)CC2)C(=O)O	88.1	> 1660	> 1660	> 166
COC(=O)[C@@H](NC(=O)[C@]12CCC(C)(C)C[C@@H]1C1=CC[C@@H]3[C@@]4(C)CC[C@H](O)C(C)(C)[C@@H]4CC[C@@]3(C)[C@]1(C)CC2)C(C)C	24.6	–	–	–
COC(=O)[C@@H](NC(=O)[C@]12CCC(C)(C)C[C@@H]1C1=CC[C@@H]3[C@@]4(C)CC[C@H](OC(C)=O)C(C)(C)[C@@H]4CC[C@@]3(C)[C@]1(C)CC2)C(C)C	21.3	–	–	–
COC(=O)[C@H](NC(=O)[C@]12CCC(C)(C)C[C@@H]1C1=CC[C@@H]3[C@@]4(C)CCC(=O)C(C)(C)[C@@H]4CC[C@@]3(C)[C@]1(C)CC2)C(C)C	41.4	–	–	–
COC(=O)[C@@H](NC(=O)[C@]12CCC(C)(C)C[C@@H]1C1=CC[C@@H]3[C@@]4(C)CCC(=O)C(C)(C)[C@@H]4CC[C@@]3(C)[C@]1(C)CC2)C(C)C	37	–	–	–
CC(C)[C@@H](NC(=O)[C@]12CCC(C)(C)C[C@@H]1C1=CC[C@@H]3[C@@]4(C)CCC(=O)C(C)(C)[C@@H]4CC[C@@]3(C)[C@]1(C)CC2)C(=O)O	45.2	–	–	–
COC(=O)[C@H](NC(=O)[C@]12CCC(C)(C)C[C@@H]1C1=CC[C@@H]3[C@@]4(C)CC[C@H](O)C(C)(C)[C@@H]4CC[C@@]3(C)[C@]1(C)CC2)C(C)C	32.3	–	–	–
CC(C)[C@@H](NC(=O)[C@]12CCC(C)(C)C[C@@H]1[C@H]1CC[C@@H]3[C@@]4(C)C=C(O)C(=O)C(C)(C)[C@@H]4CC[C@@]3(C)[C@]1(C)CC2)C(=O)O	49.7	–	–	–
CC(C)[C@H](NC(=O)[C@]12CCC(C)(C)C[C@@H]1[C@H]1CC[C@@H]3[C@@]4(C)C=C(O)C(=O)C(C)(C)[C@@H]4CC[C@@]3(C)[C@]1(C)CC2)C(=O)O	40.5	–	–	–
C=C(C)[C@@H]1CC[C@]2(C)CC[C@]3(C)[C@@H](CC[C@@H]4[C@@]5(C)C=C(O)C(=O)C(C)(C)[C@@H]5CC[C@]43C)[C@H]12	24.6	–	–	–
CC1(C)CC[C@]2(C(=O)O)CC[C@]3(C)C(=CC[C@@H]4[C@@]5(C)CC(=O)C(C)(C)[C@@H]5CC[C@]43C)[C@H]2C1	28.6	–	–	–
C=C(C)[C@@H]1CC[C@]2(C=O)CC[C@]3(C)[C@@H](CC[C@@H]4[C@@]5(C)CCC(=O)C(C)(C)[C@@H]5CC[C@]43C)[C@H]12	31.9	–	–	–
C=C(C)[C@@H]1CC[C@]2(C)CC[C@]3(C)[C@@H](CC[C@@H]4[C@@](C)(CC(=O)O)[C@H](C(C)(C)C(=O)O)CC[C@]43C)[C@H]12	25.4	> 2120	> 2120	80.3
CC(=O)O[C@H]1CC[C@]2(C)[C@H]3CC=C4[C@@H]5CC(C)(C)CC[C@]5(C(=O)O)CC[C@@]4(C)[C@]3(C)CC[C@H]2C1(C)C [ACETYL OLEANOLIC ACID]	> 201	–	–	–
C[C@H]1[C@H](C)CC[C@]2(C(=O)O)CC[C@]3(C)C(=CC[C@@H]4[C@@]5(C)CCC(=O)C(C)(C)[C@@H]5CC[C@]43C)[C@H]12 [URSONIC ACID]	37.5	–	–	–

Compounds with a lower IC50 (Protease), results first:

IC50 (Protease) [µM]	IC50 (Renin) [µM]	IC50 [1] [µM]	IC50 [2] [µM]	Structure (SMILES)
10.9	> 2050	> 2050	> 205	C=C(C)[C@@H]1CC[C@@]2(C)[C@@H]1[C@@H]1CC[C@@H]3[C@@](C)(CC(=O)O)[C@H](C(C)(C)C(=O)O)CC[C@@]3(C)[C@]1(C)C[C@@H]2O
15.7	> 1990	856	> 199	C=C(C)[C@@H]1CC[C@]2(C(=O)O)CC[C@]3(C)[C@@H](CC[C@@H]4[C@@](C)(CC(=O)O)[C@H](C(C)(C)C(=O)O)CC[C@]43C)[C@H]12
19.2	–	–	–	CC1(C)CC[C@]2(C(=O)O)CC[C@]3(C)[C@H](CC[C@@H]4[C@@]5(C)C=C(O)C(=O)C(C)(C)[C@@H]5CC[C@]43C)[C@H]2C1
3.9	> 1990	> 1990	> 199	CC1(C)CC[C@]2(C(=O)O)CC[C@]3(C)C(=CC[C@@H]4[C@@](C)(CC(=O)O)[C@H](C(C)(C)C(=O)O)CC[C@]43C)[C@H]2C1
15.8	–	–	–	CC1(C)C(=O)C(O)=C[C@]2(C)[C@H]3C(=O)C[C@@H]4[C@H]5C[C@@](C)(C(=O)O)CC[C@]5(C)CC[C@@]4(C)[C@]3(C)CC[C@@H]12
18.8	–	–	–	C=C(C)[C@@H]1CC[C@]2(C(=O)O)CC[C@]3(C)[C@@H](CC[C@@H]4[C@@]5(C)C=C(O)C(=O)C(C)(C)[C@@H]5CC[C@]43C)[C@H]12
5.7	> 1930	> 1940	> 194	CC(C)(C(=O)O)[C@@H]1CC[C@]2(C)[C@H](C(=O)C=C3[C@H]4C[C@@](C)(C(=O)O)CC[C@]4(C)CC[C@]32C)[C@@]1(C)CC(=O)O
17.6	> 1990	> 1990	> 199	C[C@H]1[C@H](C)CC[C@]2(C(=O)O)CC[C@]3(C)C(=CC[C@@H]4[C@@](C)(CC(=O)O)[C@H](C(C)(C)C(=O)O)CC[C@]43C)[C@H]12
14.6	–	–	–	CC(C)[C@H](NC(=O)[C@]12CCC(C)(C)C[C@@H]1C1=CC[C@@H]3[C@@]4(C)CCC(=O)C(C)(C)[C@@H]4CC[C@@]3(C)[C@]1(C)CC2)C(=O)O
10.6	–	–	–	CC(C)[C@H](NC(=O)[C@]12CCC(C)(C)C[C@@H]1C1=CC[C@@H]3[C@@]4(C)CC[C@H](O)C(C)(C)[C@@H]4CC[C@@]3(C)[C@]1(C)CC2)C(=O)O
